The results in this text go back to PMC12903969, “Discovery of a Novel and Potent Kir4.1 Inhibitor as a Safe and Rapid‐Onset Antidepressant Agent in Mice” (Advanced Science, 2025).

Several values for one entry are separate records, joined by “and”; a condition that tells them apart may be missing. Equal values may be shown once.

The target in series [1] is T1, Kir2.2 (Homo sapiens, UniProt Q14500).
T1 construct: host or cells: CHO-K1
The series can be described thus: Whole-cell patch clamp, Kir2.2. Type of series: cell-based. The note with it: mean ± SEM. Here is the method:
(§1) Plasmids encoding WT human potassium channels Kir1.1, Kir2.1, Kir2.2, Kir4.1, and Kir4.2 were obtained from the Beijing Genomics Institute. All point mutations were constructed using the QuickChange II Site‐Directed Mutagenesis Kit (Stratagene) and subsequently verified by sequencing.
(§2) CHO‐K1 cells were maintained in DMEM/F12 growth medium containing 10% fetal bovine serum. Plasmids encoding the target genes (3600 ng) and enhanced green fluorescent protein (400 ng) were cotransfected into cells using Lipofectamine 2000 (Invitrogen) in accordance with the manufacturer's instructions. Cells were seeded onto poly‐d‐lysine (PDL)‐coated glass coverslips 1 h prior to electrophysiological recordings. […]
(§3) Whole‐cell patch‐clamp recordings were obtained either in transiently transfected CHO‐K1 cells or in primary cultured astrocytes at room temperature using standard patch‐clamp techniques with an Axopatch‐700B amplifier (Axon Instruments). […] Macroscopic currents generated by expressed potassium channels were recorded under the voltage‐clamp conditions with an internal pipette solution composed of (in mM): 140 KCl, 5 NaCl, 1 CaCl2, 1 MgCl2, 10 HEPES, and 10 EGTA, pH 7.2 adjusted with KOH. […] Astrocytic resting membrane potentials were recorded under current‐clamp conditions (I = 0 pA) using standard internal and external solutions, determined immediately after achieving whole‐cell mode.
A general note: Patch clamp records ionic current or voltage across a cell membrane.

Series [2] deals with T2, Kir4.2 (Homo sapiens, UniProt Q99712).
T2 construct: host or cells: CHO-K1
T2 sequence (Q99712 1-375): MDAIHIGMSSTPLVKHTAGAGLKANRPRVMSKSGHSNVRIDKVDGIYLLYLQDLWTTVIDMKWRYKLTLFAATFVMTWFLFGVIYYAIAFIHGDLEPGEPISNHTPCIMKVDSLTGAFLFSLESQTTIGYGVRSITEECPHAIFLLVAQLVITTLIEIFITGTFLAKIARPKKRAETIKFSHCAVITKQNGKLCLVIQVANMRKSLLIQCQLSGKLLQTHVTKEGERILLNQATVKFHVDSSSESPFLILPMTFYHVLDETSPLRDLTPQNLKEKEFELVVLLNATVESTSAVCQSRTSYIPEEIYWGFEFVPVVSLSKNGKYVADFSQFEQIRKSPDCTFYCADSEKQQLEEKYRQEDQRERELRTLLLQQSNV
In words: Whole-cell patch clamp, Kir4.2. Type of series: cell-based. Here is the method: as §1
CHO‐K1 cells were maintained in DMEM/F12 growth medium containing 10% fetal bovine serum. Plasmids encoding the target genes (3600 ng) and enhanced green fluorescent protein (400 ng) were cotransfected into cells using Lipofectamine 2000 (Invitrogen) in accordance with the manufacturer's instructions. Cells were seeded onto poly‐d‐lysine (PDL)‐coated glass coverslips 1 h prior to electrophysiological recordings. All cells were cultured under standard conditions of 5% CO2 at 37 °C.
Whole‐cell patch‐clamp recordings were obtained either in transiently transfected CHO‐K1 cells or in primary cultured astrocytes at room temperature using standard patch‐clamp techniques with an Axopatch‐700B amplifier (Axon Instruments). The signals were filtered at 2 kHz and sampled at 20 kHz using the Digidata 1440A interface (Axon Instruments). The resistance of borosilicate glass pipettes was typically 2–4 MΩ when filled with the internal solution. Drug application was facilitated using a BPS perfusion system (ALA Scientific Instruments). Macroscopic currents generated by expressed potassium channels were recorded under the voltage‐clamp conditions with an internal pipette solution composed of (in mM): 140 KCl, 5 NaCl, 1 CaCl2, 1 MgCl2, 10 HEPES, and 10 EGTA, pH 7.2 adjusted with KOH. The external solution contained (in mM): 140 NaCl, 5 KCl, 2 CaCl2, 1 MgCl2, 10 glucose, and 10 HEPES, pH 7.4 adjusted with NaOH. Currents were elicited with a hyperpolarized voltage at −120 mV from the holding potential of −80 mV, followed by a ramp voltage depolarizing to +50 mV. Astrocytic resting membrane potentials were recorded under current‐clamp conditions (I = 0 pA) using standard internal and external solutions, determined immediately after achieving whole‐cell mode.

Series [3] has as its target T3, Kir4.1 T155A (Homo sapiens, UniProt P78508, T155A).
T3 construct: expressed in transfected cells; host or cells: CHO-K1
In words: Whole-cell patch clamp, Kir4.1 point mutant T155A. Type of series: cell-based. The settings on record: JX3212 3 µM (Fig 2D). As to the method:
as §1, §2, §3

Series [4] deals with T4, GluN1/GluN2B NMDA receptor (Homo sapiens, UniProt Q05586+Q13224).
T4 construct: expressed in transfected cells
T4 sequence (Q13224 27-1484, other chains not shown): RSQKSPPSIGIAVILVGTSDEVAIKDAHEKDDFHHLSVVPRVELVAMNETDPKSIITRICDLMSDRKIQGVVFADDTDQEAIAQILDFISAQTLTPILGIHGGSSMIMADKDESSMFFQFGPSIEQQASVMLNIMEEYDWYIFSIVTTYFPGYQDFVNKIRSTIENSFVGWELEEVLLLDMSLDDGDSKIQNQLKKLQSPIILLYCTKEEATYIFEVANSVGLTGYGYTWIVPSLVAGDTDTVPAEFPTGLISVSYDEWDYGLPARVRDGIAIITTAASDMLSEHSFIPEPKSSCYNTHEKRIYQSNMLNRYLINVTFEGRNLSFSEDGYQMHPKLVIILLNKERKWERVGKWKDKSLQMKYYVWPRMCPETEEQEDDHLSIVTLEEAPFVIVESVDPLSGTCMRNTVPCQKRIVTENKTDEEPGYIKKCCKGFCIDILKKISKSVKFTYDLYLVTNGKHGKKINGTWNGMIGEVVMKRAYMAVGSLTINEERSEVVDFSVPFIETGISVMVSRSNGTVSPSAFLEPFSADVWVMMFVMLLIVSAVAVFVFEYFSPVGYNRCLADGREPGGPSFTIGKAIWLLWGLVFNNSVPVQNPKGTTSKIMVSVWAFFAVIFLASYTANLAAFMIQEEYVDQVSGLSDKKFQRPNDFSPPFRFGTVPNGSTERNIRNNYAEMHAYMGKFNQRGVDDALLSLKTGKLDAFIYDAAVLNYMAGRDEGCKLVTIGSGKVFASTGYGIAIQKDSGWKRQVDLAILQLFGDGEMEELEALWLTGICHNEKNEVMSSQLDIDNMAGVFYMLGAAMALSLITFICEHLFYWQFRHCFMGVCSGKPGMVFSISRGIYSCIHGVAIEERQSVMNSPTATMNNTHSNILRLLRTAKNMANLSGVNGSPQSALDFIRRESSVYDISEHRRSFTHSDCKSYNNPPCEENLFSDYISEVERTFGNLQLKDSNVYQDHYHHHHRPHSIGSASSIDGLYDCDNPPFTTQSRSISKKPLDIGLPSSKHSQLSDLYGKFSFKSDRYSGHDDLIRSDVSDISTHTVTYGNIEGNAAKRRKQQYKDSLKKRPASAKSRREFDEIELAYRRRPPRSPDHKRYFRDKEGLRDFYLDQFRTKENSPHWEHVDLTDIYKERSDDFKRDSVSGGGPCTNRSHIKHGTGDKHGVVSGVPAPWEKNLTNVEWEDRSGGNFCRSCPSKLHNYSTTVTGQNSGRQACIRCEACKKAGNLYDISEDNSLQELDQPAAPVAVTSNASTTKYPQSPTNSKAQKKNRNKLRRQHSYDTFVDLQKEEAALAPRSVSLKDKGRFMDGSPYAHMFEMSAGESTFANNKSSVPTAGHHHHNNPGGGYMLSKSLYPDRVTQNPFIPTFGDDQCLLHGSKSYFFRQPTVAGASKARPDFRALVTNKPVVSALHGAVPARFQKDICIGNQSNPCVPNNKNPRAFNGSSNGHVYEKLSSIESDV
In words: Patch clamp of GluN1/GluN2B NMDA receptors in stable HEK293T cells. Type of series: cell-based. An excerpt:
For recording of GluN1/GluN2B NMDA receptors, HEK293T cells stably expressing GluN1 and GluN2B subunits were voltage‐clamped at −60 mV. […] The pipette solution contained (in mM):115 CsF, 10 CsCl, 10 HEPES and 10 BAPTA (pH 7.2 adjusted by CsOH). The bath solution contained (in mM): 140 NaCl, 2.8 KCl, 1 CaCl2, 10 HEPES and 20 sucrose (pH 7.4 adjusted with NaOH).

Series [5] has as its system OBX C57BL/6J mice. The series can be described thus: Olfactory bulbectomy (OBX) model, open field test. Type of series: in vivo. The note with it: 30 mg kg−1, within 1 h. An excerpt: Male C57BL/6J mice (8–12 weeks old) were anesthetized by intraperitoneal injection of tiletamine‐zolazepam‐xylazine. Following confirmation of anesthesia, a midline scalp incision was made to expose the skull, and the bregma was identified as the anatomical reference point. Using a stereotaxic frame (Stoelting), bilateral olfactory bulbs (4 mm anterior to the bregma) were aspirated through a 1‐mm burr hole drilled with a dental drill. Hemostatic sponges were applied to the burr holes, and the incision was closed with 5‐0 silk sutures. The sham‐operated controls underwent identical procedures without bulb aspiration. Prophylactic antibiotic therapy (25% ampicillin, […], i.p.) was administered daily for three consecutive days post‐surgery. The animals were monitored during a 14‐day recovery period prior to behavioral assessments. After euthanasia, successful bulbectomy was verified by gross anatomical inspection, and habenular tissues were dissected on ice for subsequent molecular analyses.
This test was used to assess anxiety‐related behaviors in the mice. C57BL/6J mice were individually habituated to a 40 × 40 × 40 cm^3 open field arena under dim light for […]. Locomotor activity during the final 5 min was digitally recorded (30 fps) and analyzed using Tracking Master (Future Life Science (Shanghai) Co., Ltd., Shanghai, China). […]

The subject of series [6] is mice. The series can be described thus: Hippocampal inflammatory cytokines (IL-6, TNF-α) after 14-day administration. Type of series: in vivo. On the set-up: IL-6 / TNF-α: unit not given here. The note with it: for IL-6 / TNF-α: hippocampus, 14-day administration, individual animals.

T3 sequence (P78508 whole entry T155A): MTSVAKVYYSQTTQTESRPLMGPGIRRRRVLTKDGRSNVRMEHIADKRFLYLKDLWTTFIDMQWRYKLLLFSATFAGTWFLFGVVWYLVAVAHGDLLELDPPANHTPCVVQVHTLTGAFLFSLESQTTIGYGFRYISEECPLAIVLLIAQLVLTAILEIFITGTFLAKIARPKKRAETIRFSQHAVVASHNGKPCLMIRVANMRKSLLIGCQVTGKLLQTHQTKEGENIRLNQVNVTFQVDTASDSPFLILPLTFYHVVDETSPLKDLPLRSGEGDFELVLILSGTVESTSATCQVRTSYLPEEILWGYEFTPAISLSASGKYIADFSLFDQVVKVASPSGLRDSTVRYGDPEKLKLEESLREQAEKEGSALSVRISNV
T1 sequence (Q14500 whole entry): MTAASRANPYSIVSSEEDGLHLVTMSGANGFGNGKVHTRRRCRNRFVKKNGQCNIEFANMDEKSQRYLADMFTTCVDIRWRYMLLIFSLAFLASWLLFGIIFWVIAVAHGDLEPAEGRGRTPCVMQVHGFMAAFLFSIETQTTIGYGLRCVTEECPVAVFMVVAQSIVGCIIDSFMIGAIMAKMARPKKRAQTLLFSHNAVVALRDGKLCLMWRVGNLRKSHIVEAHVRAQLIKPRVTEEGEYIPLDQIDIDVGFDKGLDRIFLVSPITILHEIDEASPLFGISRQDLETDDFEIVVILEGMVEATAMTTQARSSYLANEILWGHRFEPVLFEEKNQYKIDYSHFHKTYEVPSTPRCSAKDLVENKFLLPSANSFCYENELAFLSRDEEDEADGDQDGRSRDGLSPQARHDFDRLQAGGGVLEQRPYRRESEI

Regarding `c1ccc2c(c1)oc1ccc(Nc3ccnc(NCCCN4CCOCC4)n3)cc12` [JX3212, N^4-(dibenzo[b,d]furan-2-yl)-N^2-(3-morpholinopropyl)pyrimidine-2,4-diamine], the inhibition at 3 µM was 14.3 ± 8.36% in series [1]; 91.3% in series [2] (JX3212 3 µM (Fig 2A), read-out: Kir isoforms: Kir4.2 inhibition, single recordings); 94.3% in series [3] (read-out: Mutation: T155A inhibition, single recordings). Also, the Kir4.2 blockade in series [2] (3 µM, mean ± SEM) worked out at 86.57 ± 10.51%. Further, in series [2] (JX3212 3 µM (Fig 2A)), the “Kir isoforms: Kir4.2 inhibition, single recordings” value was 93.8526 and 74.5275. Besides, in series [3], the “Mutation: T155A inhibition, single recordings” value was 94.2403 and 81.3915 and 95.4304. Also, in series [4], the IC50 is 23.7 µM. In addition, the “GLUN1/N2B inhibition, single recordings” value in series [4] (concentration 10) is 16.1554 and 31.4381 and 16.8072 and 24.8566; in series [4] (concentration 30), 75.9494 and 77.336 and 42.6087; in series [4] (concentration 50), 84.1069 and 85.4244 and 96.0913; in series [4] (concentration 100 (unit not given)), 91.8425 and 90.7749 and 99.6717 and 97.1777; in series [4] (concentration 300μ) it was 98.8477 and 99.3957 and 98.8626. For the same compound, the “OBX: percentage of distance traveled in the center (in words)” value in series [5] is given as “increased percentage of distance traveled in the center”. In addition, in series [5], the “OBX: total distance traveled (in words)” value was “did not affect the distance traveled”. In series [6] (3/10 mg kg−1 for 14 days), the “hippocampal interleukin-6 level (in words)” value is listed as “did not elevate”. The “hippocampal tumor necrosis factor-alpha level (in words)” value in series [6] (3/10 mg kg−1 for 14 days) is listed as “did not elevate”. In addition, the IL-6 in series [6] (3 mg/kg) was 45.0571 and 32.8331 and 24.8073 and 32.2935 and 22.1265 and 25.6335 and 36.1041 and 30.8941 and 28.8202 and 44.6187 and 40.1844 and 35.7837 and 22.7841 and 20.9462 and 42.3088; in series [6] (10 mg/kg) it was 35.0924 and 32.8836 and 20.727 and 32.5464 and 25.9876 and 35.1767 and 33.4906 and 33.3389 and 29.4778 and 46.0519 and 38.6332 and 35.1936 and 20.9968 and 23.4416 and 42.3425. Further, the TNF-α is 465.065 and 545.129 and 550.438 and 437.245 and 389.037 and 473.135 and 223.18 and 189.621 and 460.606 and 247.598 and 569.127 and 488.638 and 325.113 and 294.957 in series [6] (3 mg/kg); 489.276 and 552.137 and 604.805 and 420.68 and 480.356 and 484.816 and 216.59 and 243.988 and 478.02 and 253.544 and 531.962 and 451.261 and 319.804 and 494.16 in series [6] (10 mg/kg).

The term inhibition denotes the percentage by which the read-out fell short of the control. One may read the IC50 as the concentration that gives 50% inhibition.
